This is an account of results in patent publication US20220287976A1, “AMMONIA AS A PROCESSING AID FOR SPRAYED SOLID DISPERSIONS” (Capsugel Belgium NV, priority 2019, published 2022).

Data set [1] in a line: Concentration enhancement in methanol with ammonia. In kind it is physicochemical. To be noted: for concentration in methanol in the presence of ammonia: methanol with about 1.07 molar equivalents of ammonia, completely dissolved; for time to dissolution after addition of ammonia: slurry in methanol, 2.14 M ammonia in methanol added with stirring; for solubility enhancement in methanol in the presence of ammonia: versus crystalline solubility in methanol without ammonia. How it is done:
A second mixture of sulfasalazine in methanol was prepared by stirring 656.0 mg of sulfasalazine (1.65 mmol) in 14.00 mL of methanol. To this slurry, 0.825 mL of 2.14 M ammonia (1.76 mmol) in methanol was added with stirring resulting in complete dissolution of sulfasalazine within 1 minute.
A second mixture of piroxicam in methanol was prepared by stirring 661.8 mg of piroxicam (2.00 mmol) in 15.00 mL of methanol.

The nature of data set [2]: Crystalline solubility in methanol (saturated solution, thermogravimetric analysis of supernatant). To be noted: organic solvent or mixture, thermodynamic from solid, no ammonia. It is filed as physicochemical. How it is done: A saturated solution of sulfasalazine (Spectrum Chemical) was prepared in methanol with excess crystalline sulfasalazine.
A saturated solution of piroxicam (Spectrum Chemical) was prepared in methanol with excess crystalline piroxicam.

Broadly, the solubility is the dissolved amount per volume that the medium holds.

The structures appear in SMILES notation. Values after ≈ are worked out from the molar mass of the structure shown. Some results are limits rather than exact numbers.

For `CN1C(C(=O)Nc2ccccn2)=C(O)c2ccccc2S1(=O)=O` [piroxicam], in data set [1], the “concentration in methanol in the presence of ammonia” value is on record as “greater than 41 mg/mL”, the “time to dissolution after addition of ammonia” value was not above 1 min and the “solubility enhancement in methanol in the presence of ammonia” value is listed as “greater than 19 fold”. Further, the solubility in data set [2] was approximately 2100 µg/mL (≈ 6.34 mM).

As to `O=C(O)c1cc(/N=N/c2ccc(S(=O)(=O)Nc3ccccn3)cc2)ccc1O` [sulfasalazine], in data set [1], the “concentration in methanol in the presence of ammonia” value is reported as “greater than 43 mg/mL”, the “time to dissolution after addition of ammonia” value is not above 1 min and the “solubility enhancement in methanol in the presence of ammonia” value is on record as “about 43 fold”. In addition, the solubility in data set [2] was approximately 1000 µg/mL (≈ 2.51 mM).
